Results: article PMC9181126, “Design, Synthesis, Molecular Docking Analysis and Biological Evaluations of 4-[(Quinolin-4-yl)amino]benzamide Derivatives as Novel Anti-Influenza Virus Agents” (International Journal of Molecular Sciences, 2022)

What was measured:
[1] = test system: influenza virus A/WSN/33 (H1N1); assay: Plaque inhibition assay in MDCK cells; type: cell-based; conditions: for inhibition at 100 µM: MDCK, concentration 100 µM, read-out: Plaque Inhibition Assay (A/WSN/33, H1N1) Inhibition Rate
[2] = in vitro; type: cell-based; conditions: human
Outline: (§1)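 Cells were seeded and compound medium added after 48 h, then incubated 72 h at 37 °C, 5% CO2. Viability was measured by MTT (4 h), then solubilization and absorbance at 620 nm after a further 3 h. DMSO-only wells were taken as 100% viable.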

[3] = test system: HEK293T cells; assay: in vitro; type: cell-based; conditions: human, 72 h
Outline: as §1

[4] = target: ribonucleoprotein (RNP) of influenza virus (Influenza A virus, UniProt P15659); assay: cell-based; conditions: HEK-293T, read-out: RNP Reconstitution Assay Inhibition Rate; for inhibition at 100 µM: concentration 100 µM
[5] = in vitro; type: cell-based, canine; conditions: dog
Outline: as §1

[6] = test system: MDCK cells; assay: in vitro; type: cell-based, canine; conditions: dog, 72 h
Outline: as §1

[7] = test system: influenza virus A/WSN/33 (H1N1); assay: microbe, parasite or virus in culture; type: cell-based; conditions: MDCK, 72 h; for inhibition at 12.5 µM / inhibition at 25 µM / inhibition at 50 µM / inhibition at 100 µM: H1N1|WSN, read-out: Antiviral activity in CPE assay; for EC50: read-out: Cytopathic Effect Assay (A/WSN/33, H1N1) EC50

SMILES: CCNC(=O)c1ccc(Nc2ccnc3cc(C(F)(F)F)ccc23)cc1 [Compound G01, N-Ethyl-4-{[7-(trifluoromethyl)quinolin-4-yl]amino}benzamide]
- inhibition at 100 µM [1]: 81.6%
- CC50 at 72 h [2]: > 100 µM
- HEK293T cells survival rate ([3]; 3.125 µmol·L−1): 91.00±7.40%
- HEK293T cells survival rate ([3]; 6.25 µmol·L−1): 90.01±2.87%
- HEK293T cells survival rate ([3]; 12.5 µmol·L−1): 93.22±5.27%
- HEK293T cells survival rate ([3]; 25 µmol·L−1): 92.83±4.26%
- HEK293T cells survival rate ([3]; 50 µmol·L−1): 88.18±3.27%
- HEK293T cells survival rate ([3]; 100 µmol·L−1): 94.92±8.61%
- melting point: 262.8 to 264.5 °C
- inhibition at 100 µM [4]: 21%
- CC50 at 72 h [5]: > 100 µM
- MDCK cells survival rate ([6]; 12.5 µmol·L−1): 123.45±5.51%
- MDCK cells survival rate ([6]; 25 µmol·L−1): 112.08±3.35%
- MDCK cells survival rate ([6]; 50 µmol·L−1): 121.65±8.73%
- MDCK cells survival rate ([6]; 100 µmol·L−1): 160.62±4.70%
- inhibition at 12.5 µM [7]: 48 ± 4.04%
- inhibition at 25 µM [7]: 56.6 ± 3.96%
- inhibition at 50 µM [7]: 53 ± 4.28%
- inhibition at 100 µM [7]: 70.9 ± 2.63%
- EC50 [7]: 16.5 ± 5.57 µM

SMILES: CC(C)NC(=O)c1ccc(Nc2ccnc3cc(C(F)(F)F)ccc23)cc1 [Compound G02, N-Isopropyl-4-{[7-(trifluoromethyl)quinolin-4-yl]amino}benzamide]
- inhibition at 100 µM [1]: < 10%
- CC50 at 72 h [2]: > 100 µM
- HEK293T cells survival rate ([3]; 3.125 µmol·L−1): 95.91±3.00%
- HEK293T cells survival rate ([3]; 6.25 µmol·L−1): 87.90±2.52%
- HEK293T cells survival rate ([3]; 12.5 µmol·L−1): 85.31±11.55%
- HEK293T cells survival rate ([3]; 25 µmol·L−1): 74.04±2.91%
- HEK293T cells survival rate ([3]; 50 µmol·L−1): 75.54±11.17%
- HEK293T cells survival rate ([3]; 100 µmol·L−1): 66.13±2.32%
- melting point: 243.7 to 245.9 °C
- inhibition at 100 µM [4]: 3.1%
- CC50 at 72 h [5]: > 100 µM
- MDCK cells survival rate ([6]; 12.5 µmol·L−1): 153.38±36.06%
- MDCK cells survival rate ([6]; 25 µmol·L−1): 137.54±0.71%
- MDCK cells survival rate ([6]; 50 µmol·L−1): 140.08±12.49%
- MDCK cells survival rate ([6]; 100 µmol·L−1): 203.79±6.42%
- inhibition at 12.5 µM [7]: 53.6 ± 3.38%
- inhibition at 25 µM [7]: 61.6 ± 2.13%
- inhibition at 50 µM [7]: 76.7 ± 2.26%
- inhibition at 100 µM [7]: 80.6 ± 9.03%
- EC50 [7]: 10.1 ± 1.66 µM

SMILES: O=C(NCCO)c1ccc(Nc2ccnc3cc(C(F)(F)F)ccc23)cc1 [Compound G04, N-(2-Hydroxyethyl)-4-{[7-(trifluoromethyl)quinolin-4-yl]amino}benzamide]
- inhibition at 100 µM [1]: 59.3%
- CC50 at 72 h [2]: > 100 µM
- HEK293T cells survival rate ([3]; 3.125 µmol·L−1): 112.00±4.22%
- HEK293T cells survival rate ([3]; 6.25 µmol·L−1): 100.01±1.56%
- HEK293T cells survival rate ([3]; 12.5 µmol·L−1): 94.50±4.33%
- HEK293T cells survival rate ([3]; 25 µmol·L−1): 91.99±5.43%
- HEK293T cells survival rate ([3]; 50 µmol·L−1): 98.62±11.78%
- HEK293T cells survival rate ([3]; 100 µmol·L−1): 96.30±10.52%
- melting point: 262.5 to 264.1 °C
- inhibition at 100 µM [4]: 14%
- CC50 at 72 h [5]: > 100 µM
- MDCK cells survival rate ([6]; 12.5 µmol·L−1): 118.54±1.29%
- MDCK cells survival rate ([6]; 25 µmol·L−1): 110.54±13.59%
- MDCK cells survival rate ([6]; 50 µmol·L−1): 126.43±7.03%
- MDCK cells survival rate ([6]; 100 µmol·L−1): 124.89±12.49%
- inhibition at 12.5 µM [7]: 55.3 ± 4.28%
- inhibition at 25 µM [7]: 54.6 ± 4.19%
- inhibition at 50 µM [7]: 57.1 ± 9.3%
- inhibition at 100 µM [7]: 49.3 ± 0.74%
- EC50 [7]: > 100 µM

SMILES: O=C(NCCCO)c1ccc(Nc2ccnc3cc(C(F)(F)F)ccc23)cc1 [Compound G05, N-(3-Hydroxypropyl)-4-{[7-(trifluoromethyl)quinolin-4-yl]amino}benzamide]
- inhibition at 100 µM [1]: 82.9%
- CC50 at 72 h [2]: > 100 µM
- HEK293T cells survival rate ([3]; 3.125 µmol·L−1): 106.06±4.46%
- HEK293T cells survival rate ([3]; 6.25 µmol·L−1): 109.11±25.17%
- HEK293T cells survival rate ([3]; 12.5 µmol·L−1): 96.82±2.21%
- HEK293T cells survival rate ([3]; 25 µmol·L−1): 95.07±1.76%
- HEK293T cells survival rate ([3]; 50 µmol·L−1): 93.06±1.61%
- HEK293T cells survival rate ([3]; 100 µmol·L−1): 122.90±10.09%
- melting point: 249.6 to 250.4 °C
- inhibition at 100 µM [4]: 17.6%
- CC50 at 72 h [5]: > 100 µM
- MDCK cells survival rate ([6]; 12.5 µmol·L−1): 113.26±1.76%
- MDCK cells survival rate ([6]; 25 µmol·L−1): 110.22±4.44%
- MDCK cells survival rate ([6]; 50 µmol·L−1): 101.63±4.85%
- MDCK cells survival rate ([6]; 100 µmol·L−1): 111.87±2.49%
- inhibition at 12.5 µM [7]: 42 ± 5.5%
- inhibition at 25 µM [7]: 48.6 ± 2.31%
- inhibition at 50 µM [7]: 50.2 ± 1.8%
- inhibition at 100 µM [7]: 56 ± 4.37%
- EC50 [7]: 40.9 ± 5.64 µM

SMILES: O=C(c1ccc(Nc2ccnc3cc(C(F)(F)F)ccc23)cc1)N1CCOCC1 [Compound G12, Morpholino{4-{[7-(trifluoromethyl)quinolin-4-yl]amino}phenyl}methanone]
- inhibition at 100 µM [1]: < 10%
- CC50 at 72 h [2]: > 100 µM
- HEK293T cells survival rate ([3]; 3.125 µmol·L−1): 100.47±5.92%
- HEK293T cells survival rate ([3]; 6.25 µmol·L−1): 89.50±2.30%
- HEK293T cells survival rate ([3]; 12.5 µmol·L−1): 86.67±6.98%
- HEK293T cells survival rate ([3]; 25 µmol·L−1): 88.50±7.54%
- HEK293T cells survival rate ([3]; 50 µmol·L−1): 80.68±3.36%
- HEK293T cells survival rate ([3]; 100 µmol·L−1): 74.00±4.57%
- melting point: 277.9 to 278.7 °C
- inhibition at 100 µM [4]: 50%
- CC50 at 72 h [5]: > 100 µM
- MDCK cells survival rate ([6]; 12.5 µmol·L−1): 92.77±4.37%
- MDCK cells survival rate ([6]; 25 µmol·L−1): 137.81±3.21%
- MDCK cells survival rate ([6]; 50 µmol·L−1): 130.46±5.65%
- MDCK cells survival rate ([6]; 100 µmol·L−1): 120.48±10.37%
- inhibition at 12.5 µM [7]: 70.9 ± 4.82%
- inhibition at 25 µM [7]: 97.6 ± 3.67%
- inhibition at 50 µM [7]: 75.7 ± 9.49%
- inhibition at 100 µM [7]: 76.7 ± 5.27%
- EC50 [7]: > 100 µM

SMILES: O=C(c1ccc(Nc2ccnc3cc(C(F)(F)F)ccc23)cc1)N1CCN(c2ccc(Cl)cc2)CC1 [Compound G17, [4-(4-Chlorophenyl)piperazin-1-yl]{4-{[7-(trifluoromethyl)quinolin-4-yl]amino}phenyl}methanone]
- inhibition at 100 µM [1]: 73.5%
- CC50 at 72 h [2]: > 100 µM
- HEK293T cells survival rate ([3]; 3.125 µmol·L−1): 86.81±4.81%
- HEK293T cells survival rate ([3]; 6.25 µmol·L−1): 89.66±6.31%
- HEK293T cells survival rate ([3]; 12.5 µmol·L−1): 78.02±11.06%
- HEK293T cells survival rate ([3]; 25 µmol·L−1): 62.61±12.04%
- HEK293T cells survival rate ([3]; 50 µmol·L−1): 52.36±1.02%
- HEK293T cells survival rate ([3]; 100 µmol·L−1): 59.17±1.33%
- melting point: 242 to 242.9 °C
- inhibition at 12.5 µM ([4]; concentration 12.5 µM): 40.2%
- CC50 at 72 h [5]: > 100 µM
- MDCK cells survival rate ([6]; 12.5 µmol·L−1): 71.49±1.03%
- MDCK cells survival rate ([6]; 25 µmol·L−1): 65.78±1.15%
- MDCK cells survival rate ([6]; 50 µmol·L−1): 63.22±11.25%
- MDCK cells survival rate ([6]; 100 µmol·L−1): 51.32±5.29%
- inhibition at 12.5 µM [7]: 33.5 ± 1.23%
- inhibition at 25 µM [7]: 27.3 ± 3.16%
- inhibition at 50 µM [7]: 21.1 ± 1.62%
- inhibition at 100 µM [7]: 28.5 ± 7.81%
- EC50 [7]: > 100 µM

SMILES: COc1ccccc1OCCNC(=O)c1ccc(Nc2ccnc3ccccc23)cc1 [Compound G19, N-{2-(2-Methoxyphenoxy)ethyl}-4-(quinolin-4-ylamino)benzamide]
- inhibition at 100 µM [1]: 82.3%
- CC50 at 72 h [2]: > 100 µM
- HEK293T cells survival rate ([3]; 3.125 µmol·L−1): 103.14±6.28%
- HEK293T cells survival rate ([3]; 6.25 µmol·L−1): 103.54±9.29%
- HEK293T cells survival rate ([3]; 12.5 µmol·L−1): 103.11±7.45%
- HEK293T cells survival rate ([3]; 25 µmol·L−1): 97.97±3.74%
- HEK293T cells survival rate ([3]; 50 µmol·L−1): 97.40±3.36%
- HEK293T cells survival rate ([3]; 100 µmol·L−1): 112.18±7.45%
- melting point: 319.5 to 320.2 °C
- inhibition at 100 µM [4]: 13.9%
- CC50 at 72 h [5]: > 100 µM
- MDCK cells survival rate ([6]; 12.5 µmol·L−1): 90.89±5.31%
- MDCK cells survival rate ([6]; 25 µmol·L−1): 93.23±8.08%
- MDCK cells survival rate ([6]; 50 µmol·L−1): 102.17±1.95%
- MDCK cells survival rate ([6]; 100 µmol·L−1): 111.55±9.83%
- inhibition at 12.5 µM [7]: 131 ± 11.1%
- inhibition at 25 µM [7]: 132 ± 4.75%
- inhibition at 50 µM [7]: 138 ± 9.95%
- inhibition at 100 µM [7]: 122 ± 5.08%
- EC50 [7]: < 10 µM

SMILES: Cc1onc(-c2ccccc2)c1C(=O)N1CCN(c2ccc([N+](=O)[O-])cc2Cl)CC1 [nucleozin, reference compound]
- IC50 ([1]; MDCK cells): 0.15 ± 0.11 µM
- inhibition at 100 µM [1]: 99.5%
- inhibition at 100 µM [4]: 92.9%
- EC50 [7]: 0.21 ± 0.15 µM
